# Results published in article PMC9733060, “Novel alendronate-CGS21680 conjugate reduces bone resorption and induces new bone formation in post-menopausal osteoporosis and inflammatory osteolysis mouse models” (Arthritis Research & Therapy, 2022).
# Like-named read-outs stand apart in the source and are kept apart here. Marks after values point to notes of the source that are not given here.
# What was measured:
# [1] = tested on: ovariectomy-induced osteoporotic mice; assay type: in vivo; conditions: μCT, mean ± SEM, 10 mg/kg weekly IP, 9 weeks
# [2] = tested on: human primary osteoclasts; test: human primary osteoclast differentiation (RANKL, TRAP staining); assay type: cell-based; conditions: 0.001-10 μM, 7 days, 30 ng/mL RANKL
# Procedure: Human bone marrow was obtained from 4 OA patients who underwent hip replacement surgery and all protocols were approved by the NYU School of Medicine’s IRB. Precursor cells were flushed out from femoral head with DMEM media with 10% fetal bovine serum (FBS), and 100 U/ml of penicillin and streptomycin (Lonza, Belgium) in sterile conditions and incubated for 48h non-adherent cells were collected and differentiated to osteoclasts and adherents cell were differentiated to osteoblasts as previously described.
# Osteoclast differentiation was assessed by TRAP staining by incubating PFA fixed samples with TRAP buffer (0.1M acetate buffer, 0.3M sodium tartrate, 10mg/ml Naphthol AS-MX phosphate, 0.1% Triton X-100, 0.3mg/ml Fast Red Violet LB (Sigma-Aldrich, St. Louis, MO, USA)) for 10 min. Images were taken in a Leica (Morrisville, NC, USA) inverted microscope.
# [3] = cited from earlier work
# [4] = tested on: UHMWPE-induced osteolytic mice (WT); test: UHMWPE wear particle-induced osteolysis (OL) in WT mice calvaria; assay type: in vivo, mouse; conditions: doses <10mg/kg/week, data not shown
# [5] = tested on: human primary osteoclasts; parameters: method as in PMID 23647065, PMID 25573752; conditions: previously demonstrated; cited from earlier work
compound,measurement,setting,value
"NCCCC(O)(P(=O)(O)O)P(=O)(O)O [Alendronate, alendronic acid]",BS/BV,[1]; L5 vertebra trabecular bone,71.26 ± 2.80* 1/mm
same,BV/TV,[1]; L5 vertebra trabecular bone,12.34 ± 0.74 %
same,Tb.N,[1]; L5 vertebra trabecular bone,2.60 ± 0.21 * 1/mm
same,Tb.Pf,[1]; L5 vertebra trabecular bone,13.73 ± 1.23 # 1/mm
same,Tb.Sp,[1]; L5 vertebra trabecular bone,0.298 ± 0.012 μm
same,Tb.Th,[1]; L5 vertebra trabecular bone,0.047 ± 0.002 μm
same,BV,[1]; femur cortical bone,0.442 ± 0.014 * mm^3
same,BV/TV,[1]; femur cortical bone,44.50 ± 1.03
same,TV,[1]; femur cortical bone,0.994 ± 0.042 mm^3
same,BS/BV,[1]; femur trabecular bone,89.18 ± 4.61 1/mm
same,BV/TV,[1]; femur trabecular bone,0.771 ± 0.210 %
same,Tb.N,[1]; femur trabecular bone,0.164 ± 0.043 # 1/mm
same,Tb.Pf,[1]; femur trabecular bone,37.43 ± 2.48 1/mm
same,Tb.Sp,[1]; femur trabecular bone,0.702 ± 0.100 # μm
same,Tb.Th,[1]; femur trabecular bone,0.0468 ± 0.0014 μm
same,inhibition of osteoclast differentiation (anti-osteoclastogenic properties),[2],more potent than AlenP
same,time for kidneys to excrete the amount not taken up by bone tissues,[3],≤ 24 h
same,elimination from bone tissue,[3]; humans,up to 12 years
"CCNC(=O)[C@H]1O[C@@H](n2cnc3c(N)nc(NCCc4ccc(CCC(=O)O)cc4)nc32)[C@H](O)[C@@H]1O [CGS21680, 2-[p-(2-carboxyethyl)-phenethylamino]-5'-N-ethylcarboxamido adenosine]",effect on bone density in the affected areas,[4],none of the doses tested <10mg/kg/week had any effect on bone density
Nc1nc(NCCc2ccc(O)cc2)nc2nc(-c3ccco3)nn12 [ZM21385],effect on osteoclast differentiation,[5],increases osteoclast differentiation
